A value given as a limit tells only on which side of the number the result lay.

A word on the IC50: it is the concentration that inhibits the measured activity by half.

This assay deals with IL-1β release upon NLRP3 activation in peripheral blood mononuclear cells (PBMC). Nature of the assay: PBMC IC50 Determination Assay. It is filed as cell-based. As to conditions: Homo sapiens; LPS-primed PBMC, 30 min compound, stimulated with ATP (5 mM) or nigericin (10 μM) for 1 h; IL-1β ELISA; read-out: PBMC IC50. The method, then: PBMC IC50 Determination Assay
The compounds of the present disclosure were tested for their inhibitory activity against IL-1β release upon NLRP3 activation in peripheral blood mononuclear cells (PBMC).
Isolated cells were seeded into the wells of a 96-well plate and incubated for 3 h with lipopolysaccharide (LPS). Following medium exchange, the compounds of the present disclosure were added (a single compound per well) and the cells were incubated for 30 min. Next, the cells were stimulated either with ATP (5 mM) or nigericin (10 μM) for 1 h and the cell culture media from the wells were collected for further analysis.
The release of IL-1β into the media was determined by a quantitative detection of IL-1β in the media using an IL-1β enzyme-linked immunosorbent assay (ELISA) Ready-SET-Go!, eBioscience cat. […] Subsequently, plates were blocked with blocking buffer for 1 h at room temperature (rt) and after washing with a buffer (PBS with 0.05% Tween-20) incubated with protein standard and culture media. […] Plates were washed and incubated with HRP-streptavidin for 30 min at rt and washed again. The signal was developed after addition of 3,3,5,5-tetramethylbenzidine-peroxidase (TMB) until colour appeared and the reaction was stopped by 2 M H2SO4. A microplate spectrophotometer (BioTek) was used to detect signals with 450 nm. The detection range of IL-1β ELISA was 2-150 ng/ml.
Regarding `CCOC(=O)C(Cn1cccn1)OC(=O)Nc1c(C)cccc1C#N` (stereo not drawn) [Compound 57, Ethyl 2-{[(2-cyano-6-methylphenyl)carbamoyl]oxy}-3-(1H-pyrazol-1-yl)propanoate], the concentration for half-maximal inhibition (IC50) was greater than 10 µM.
The same measure for `CCOC(=O)C(Cn1cccn1)OC(=O)Nc1c(C#N)cccc1CC` (stereo not drawn) [Compound 58, Ethyl 2-{[(2-cyano-6-ethylphenyl)carbamoyl]oxy}-3-(1H-pyrazol-1-yl)propanoate]: 1 to 10 µM.
Regarding `CCOC(=O)C(Cn1cccn1)OC(=O)Nc1c(Cl)cccc1C#N` (stereo not drawn) [Compound 59, Ethyl 2-{[(2-chloro-6-cyanophenyl)carbamoyl]oxy}-3-(1H-pyrazol-1-yl)propanoate], the 50% inhibitory concentration (IC50) was greater than 10 µM.
As for `O=C(Nc1c2c(cc3c1CCC3)CCC2)O[C@H](Cn1cccn1)C(=O)O` [Compound 61, (2R)-2-{[(1,2,3,5,6,7-hexahydro-s-indacen-4-yl)carbamoyl]oxy}-3-(1H-pyrazol-1-yl)propanoic acid], the figure is 0.1 to 1 µM; as for `CCOC(=O)C(Cc1cccnn1)OC(=O)Nc1c2c(cc3c1CCC3)CCC2` (stereo not drawn) [Compound 62, Ethyl 2-{[(1,2,3,5,6,7-hexahydro-s-indacen-4-yl)carbamoyl]oxy}-3-(pyridazin-3-yl)propanoate], 0.1 to 1 µM.
As for `CCOC(=O)C(Cn1cccn1)OC(=O)Nc1c(F)ccc(F)c1F` (stereo not drawn) [Compound 63, Ethyl 3-(1H-pyrazol-1-yl)-2-{[(2,3,6-trifluorophenyl)carbamoyl]oxy}propanoate], the figure is 0.1 to 1 µM; as for `O=C(Nc1c2c(cc3c1CCC3)CCC2)O[C@H](Cn1cccn1)C(=O)OCc1ccccc1` [Compound 64, Benzyl (2R)-2-{[(1,2,3,5,6,7-hexahydro-s-indacen-4-yl)carbamoyl]oxy}-3-(1H-pyrazol-1-yl)propanoate], 0.1 to 1 µM; as for `CCOC(=O)C(Cn1cccn1)OC(=O)Nc1c(F)cccc1CC` (stereo not drawn) [Compound 66, Ethyl 2-{[(2-ethyl-6-fluorophenyl)carbamoyl]oxy}-3-(1H-pyrazol-1-yl)propanoate], 0.1 to 1 µM.
Consider `CCOC(=O)[C@@H](Cn1ccnc1)OC(=O)Nc1c2c(cc3c1CCC3)CCC2` [Compound 67, Ethyl (2R)-2-{[(1,2,3,5,6,7-hexahydro-s-indacen-4-yl)carbamoyl]oxy}-3-(1H-imidazol-1-yl)propanoate], for which the IC50 lay within 0.1 to 1 µM.
The same measure for `CCOC(=O)[C@@H](COC)OC(=O)Nc1c2c(cc3c1CCC3)CCC2` [Compound 68, Ethyl (2R)-2-{[(1,2,3,5,6,7-hexahydro-indacen-4-yl)carbamoyl]oxy}-3-methoxypropanoate]: 1 to 10 µM; for `COC[C@@H](OC(=O)Nc1c2c(cc3c1CCC3)CCC2)C(=O)O` [Compound 69, (2R)-2-{[(1,2,3,5,6,7-hexahydro-s-indacen-4-yl)carbamoyl]oxy}-3-methoxypropanoic acid]: 0.1 to 1 µM; for `CCOC(=O)C(Cn1cccn1)OC(=O)Nc1cccc(C(F)(F)F)c1Cl` (stereo not drawn) [Compound 70, Ethyl 2-({[2-chloro-3-(trifluoromethyl)phenyl]carbamoyl}oxy)-3-(1H-pyrazol-1-yl)propanoate]: 1 to 10 µM.
As for `CCOC(=O)C(Cn1ccc(C)n1)OC(=O)Nc1c2c(cc3c1CCC3)CCC2` (stereo not drawn) [Compound 72, Ethyl 2-{[(1,2,3,5,6,7-hexahydro-s-indacen-4-yl)carbamoyl]oxy}-3-(3-methyl-1H-pyrazol-1-yl)propanoate], the figure is 0.01 to 0.1 µM; as for `CCOC(=O)C(Cn1cccn1)OC(=O)Nc1c(F)cc(F)cc1F` (stereo not drawn) [Compound 73, Ethyl 3-(1H-pyrazol-1-yl)-2-{[(2,4,6-trifluorophenyl)carbamoyl]oxy}propanoate], 0.1 to 1 µM; as for `CCOC(=O)C(Cn1cccn1)OC(=O)Nc1c(C)cccc1C(C)C` (stereo not drawn) [Compound 74, Ethyl 2-({[2-methyl-6-(propan-2-yl)phenyl]carbamoyl}oxy)-3-(1H-pyrazol-1-yl)propanoate], 0.1 to 1 µM.
As for `CCOC(=O)C(Cn1cccn1)OC(=O)Nc1c(F)ccc(Cl)c1F` (stereo not drawn) [Compound 75, Ethyl 2-{[(3-chloro-2,6-difluorophenyl)carbamoyl]oxy}-3-(1H-pyrazol-1-yl)propanoate], the figure is 0.1 to 1 µM; as for `N#Cc1cnn(C[C@@H](OC(=O)Nc2c3c(cc4c2CCC4)CCC3)C(=O)OCc2ccccc2)c1` [Compound 77, Benzyl (2R)-3-(4-cyano-1H-pyrazol-1-yl)-2-{[(1,2,3,5,6,7-hexahydro-s-indacen-4-yl)carbamoyl]oxy}propanoate], 0.01 to 0.1 µM.
For the compound `O=C(Nc1c2c(cc3c1CCC3)CCC2)O[C@H](Cn1ccnc1)C(=O)O` [Compound 79, (2R)-2-{[(1,2,3,5,6,7-hexahydro-s-indacen-4-yl)carbamoyl]oxy}-3-(1H-imidazol-1-yl)propanoic acid], the IC50 was 1 to 10 µM.
The same measure for `CCOC(=O)C(Cn1cc(F)cn1)OC(=O)Nc1c2c(cc3c1CCC3)CCC2` (stereo not drawn) [Compound 80, Ethyl 3-(4-fluoro-1H-pyrazol-1-yl)-2-{[(1,2,3,5,6,7-hexahydro-s-indacen-4-yl)carbamoyl]oxy}propanoate]: 0.01 to 0.1 µM; for `CCOC(=O)C(Cn1cncc1C)OC(=O)Nc1c2c(cc3c1CCC3)CCC2` (stereo not drawn) [Compound 81, Ethyl 2-{[(1,2,3,5,6,7-hexahydro-s-indacen-4-yl)carbamoyl]oxy}-3-(5-methyl-1H-imidazol-1-yl)propanoate]: 1 to 10 µM.
As for `N#Cc1cnn(C[C@@H](OC(=O)Nc2c3c(cc4c2CCC4)CCC3)C(=O)O)c1` [Compound 82, (2R)-3-(4-cyano-1H-pyrazol-1-yl)-2-{[(1,2,3,5,6,7-hexahydro-s-indacen-4-yl)carbamoyl]oxy}propanoic acid], the figure is 0.01 to 0.1 µM; as for `CCOC(=O)C(Cn1ccnc1C)OC(=O)Nc1c2c(cc3c1CCC3)CCC2` (stereo not drawn) [Compound 84, Ethyl 2-{[(1,2,3,5,6,7-hexahydro-s-indacen-4-yl)carbamoyl]oxy}-3-(2-methyl-1H-imidazol-1-yl)propanoate], 1 to 10 µM.
The same measure for `CCOC(=O)C(Cn1cccn1)OC(=O)Nc1c(Cl)cccc1CC` (stereo not drawn) [Compound 85, Ethyl 2-{[(2-chloro-6-ethylphenyl)carbamoyl]oxy}-3-(1H-pyrazol-1-yl)propanoate]: 0.01 to 0.1 µM.
For `CCOC(=O)C(Cn1cccn1)OC(=O)Nc1c(C)ccc2ccccc12` (stereo not drawn) [Compound 86, Ethyl 2-{[(2-methylnaphthalen-1-yl)carbamoyl]oxy}-3-(1H-pyrazol-1-yl)propanoate], the IC50 fell in the range of 0.01 to 0.1 µM.
The same measure for `CCOC(=O)C(Cn1cccn1)OC(=O)NC1CCCCC1C` (stereo not drawn) [Compound 87, Ethyl 2-{[(2-methylcyclohexyl)carbamoyl]oxy}-3-(1H-pyrazol-1-yl)propanoate]: 1 to 10 µM.
The same measure for `CCOC(=O)[C@@H](Cn1cc(Cl)cn1)OC(=O)Nc1c2c(cc3c1CCC3)CCC2` [Compound 88, Ethyl (2R)-3-(4-chloro-1H-pyrazol-1-yl)-2-{[(1,2,3,5,6,7-hexahydro-s-indacen-4-yl)carbamoyl]oxy}propanoate]: 0.01 to 0.1 µM.
The same measure for `CCOC(=O)[C@@H](Cn1cnc(C#N)c1)OC(=O)Nc1c2c(cc3c1CCC3)CCC2` [Compound 89, Ethyl (2R)-3-(4-cyano-1H-imidazol-1-yl)-2-{[(1,2,3,5,6,7-hexahydro-s-indacen-4-yl)carbamoyl]oxy}propanoate]: 0.1 to 1 µM.
For the compound `CCOC(=O)[C@@H](Cn1cncc1C#N)OC(=O)Nc1c2c(cc3c1CCC3)CCC2` [Compound 90, Ethyl (2R)-3-(5-cyano-1H-imidazol-1-yl)-2-{[(1,2,3,5,6,7-hexahydro-s-indacen-4-yl)carbamoyl]oxy}propanoate], the IC50 lay within 1 to 10 µM.
For `CCOC(=O)C(Cn1cccn1)OC(=O)Nc1c(C)cc(C(F)(F)F)cc1C` (stereo not drawn) [Compound 91, Ethyl 2-({[2,6-dimethyl-4-(trifluoromethyl)phenyl]carbamoyl}oxy)-3-(1H-pyrazol-1-yl)propanoate], the 50% inhibitory concentration (IC50) lay within 1 to 10 µM.
As for `CCOC(=O)C(Cn1cc(OC)cn1)OC(=O)Nc1c2c(cc3c1CCC3)CCC2` (stereo not drawn) [Compound 92, Ethyl 2-{[(1,2,3,5,6,7-hexahydro-s-indacen-4-yl)carbamoyl]oxy}-3-(4-methoxy-1H-pyrazol-1-yl)propanoate], the figure is 0.1 to 1 µM.
As for `CCOC[C@@H](OC(=O)Nc1c2c(cc3c1CCC3)CCC2)C(=O)OCC` [Compound 95, Ethyl (2R)-3-ethoxy-2-{[(1,2,3,5,6,7-hexahydro-s-indacen-4-yl)carbamoyl]oxy}propanoate], the figure is 0.1 to 1 µM.
The same measure for `CCOC(=O)[C@@H](Cn1ccc(C#N)n1)OC(=O)Nc1c2c(cc3c1CCC3)CCC2` [Compound 96, Ethyl (2R)-3-(3-cyano-1H-pyrazol-1-yl)-2-{[(1,2,3,5,6,7-hexahydro-s-indacen-4-yl)carbamoyl]oxy}propanoate]: 0.1 to 1 µM.
`CCOC(=O)[C@@H](Cn1cc(C(F)(F)F)cn1)OC(=O)Nc1c2c(cc3c1CCC3)CCC2` [Compound 97, Ethyl (2R)-2-{[(1,2,3,5,6,7-hexahydro-s-indacen-4-yl)carbamoyl]oxy}-3-[4-(trifluoromethyl)-1H-pyrazol-1-yl]propanoate]: the half-inhibitory concentration (IC50) fell in the range of 0.1 to 1 µM.

Values taken from patent publication US12247011B2, “Selective inhibitors of NLRP3 inflammasome” (NodThera Limited, priority 2017, dated 2025).
